# Measurements taken from PubChem BioAssay AID1918944 (Molecular Pharmacology Branch, DTP, NCI, 2023).
# pIC50: −log10 of the molar value. “And” between values parts separate entries of the source, which are not always exact repeats. Identical values can stand only once.
# Test system: 786-0 complex spheroid viability
# Test: Anticancer human tumor 786-0 cell line growth inhibition;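 further: spheroids exposed to agents for seven days before readout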
# Details: for viability, T/C: stronger effect = lower value
# Method in brief: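 Complex spheroids of tumor cells with HUVEC and human MSCs, exposed to iadademstat combined with other agents. Each agent tested in half-log steps from near clinical Cmax (else 10 microM top), DMSO ≤0.25%.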
# [1] = curve of first compound, second compound 0.1 µM
# [2] = curve of first compound, second compound 0.316 µM
# [3] = curve of first compound, second compound 1 µM
# [4] = curve of first compound, second compound 3.16 µM
# [5] = curve of first compound, second compound 10 µM
# [6] = second compound 0.1 µM, first compound 0.00949 µM
# [7] = second compound 0.1 µM, first compound 0.03 µM
# [8] = second compound 0.1 µM, first compound 0.0949 µM
# [9] = second compound 0.1 µM, first compound 0.3 µM
# [10] = second compound 0.1 µM, first compound 0.949 µM
# [11] = second compound 0.1 µM, first compound 3 µM
# [12] = second compound 0.316 µM, first compound 0.00949 µM
# [13] = second compound 0.316 µM, first compound 0.03 µM
# [14] = second compound 0.316 µM, first compound 0.0949 µM
# [15] = second compound 0.316 µM, first compound 0.3 µM
# [16] = second compound 0.316 µM, first compound 0.949 µM
# [17] = second compound 0.316 µM, first compound 3 µM
# [18] = second compound 1 µM, first compound 0.00949 µM
# [19] = second compound 1 µM, first compound 0.03 µM
# [20] = second compound 1 µM, first compound 0.0949 µM
# [21] = second compound 1 µM, first compound 0.3 µM
# [22] = second compound 1 µM, first compound 0.949 µM
# [23] = second compound 1 µM, first compound 3 µM
# [24] = second compound 3.16 µM, first compound 0.00949 µM
# [25] = second compound 3.16 µM, first compound 0.03 µM
# [26] = second compound 3.16 µM, first compound 0.0949 µM
# [27] = second compound 3.16 µM, first compound 0.3 µM
# [28] = second compound 3.16 µM, first compound 0.949 µM
# [29] = second compound 3.16 µM, first compound 3 µM
# [30] = second compound 10 µM, first compound 0.00949 µM
# [31] = second compound 10 µM, first compound 0.03 µM
# [32] = second compound 10 µM, first compound 0.0949 µM
# [33] = second compound 10 µM, first compound 0.3 µM
# [34] = second compound 10 µM, first compound 0.949 µM
# [35] = second compound 10 µM, first compound 3 µM
# [36] = second compound 0.1 µM, first compound 0.00316 µM
# [37] = second compound 0.1 µM, first compound 0.01 µM
# [38] = second compound 0.1 µM, first compound 0.0316 µM
# [39] = second compound 0.1 µM, first compound 0.1 µM
# [40] = second compound 0.1 µM, first compound 0.316 µM
# [41] = second compound 0.1 µM, first compound 1 µM
# [42] = second compound 0.316 µM, first compound 0.00316 µM
# [43] = second compound 0.316 µM, first compound 0.01 µM
# [44] = second compound 0.316 µM, first compound 0.0316 µM
# [45] = second compound 0.316 µM, first compound 0.1 µM
# [46] = second compound 0.316 µM, first compound 0.316 µM
# [47] = second compound 0.316 µM, first compound 1 µM
# [48] = second compound 1 µM, first compound 0.00316 µM
# [49] = second compound 1 µM, first compound 0.01 µM
# [50] = second compound 1 µM, first compound 0.0316 µM
# [51] = second compound 1 µM, first compound 0.1 µM
# [52] = second compound 1 µM, first compound 0.316 µM
# [53] = second compound 1 µM, first compound 1 µM
# [54] = second compound 3.16 µM, first compound 0.00316 µM
# [55] = second compound 3.16 µM, first compound 0.01 µM
# [56] = second compound 3.16 µM, first compound 0.0316 µM
# [57] = second compound 3.16 µM, first compound 0.1 µM
# [58] = second compound 3.16 µM, first compound 0.316 µM
# [59] = second compound 3.16 µM, first compound 1 µM
# [60] = second compound 10 µM, first compound 0.00316 µM
# [61] = second compound 10 µM, first compound 0.01 µM
# [62] = second compound 10 µM, first compound 0.0316 µM
# [63] = second compound 10 µM, first compound 0.1 µM
# [64] = second compound 10 µM, first compound 0.316 µM
# [65] = second compound 10 µM, first compound 1 µM
smiles,measurement,setting,value
Nc1ccccc1NC(=O)c1ccc(CNC(=O)OCc2cccnc2)cc1 + NC1CCC(NC2CC2c2ccccc2)CC1,pIC50,[1],5.78
same,pIC50,[2],5.81
same,pIC50,[3],5.81
same,pIC50,[4],5.89
same,pIC50,[5],6.12
same,"viability, T/C",[6],115%
same,"viability, T/C",[7],121%
same,"viability, T/C",[8],113%
same,"viability, T/C",[9],110%
same,"viability, T/C",[10],80.9%
same,"viability, T/C",[11],17.7%
same,"viability, T/C",[12],123%
same,"viability, T/C",[13],121%
same,"viability, T/C",[14],119%
same,"viability, T/C",[15],109%
same,"viability, T/C",[16],74.2%
same,"viability, T/C",[17],17.2%
same,"viability, T/C",[18],116%
same,"viability, T/C",[19],116%
same,"viability, T/C",[20],112%
same,"viability, T/C",[21],103%
same,"viability, T/C",[22],74%
same,"viability, T/C",[23],16.7%
same,"viability, T/C",[24],107%
same,"viability, T/C",[25],105%
same,"viability, T/C",[26],103%
same,"viability, T/C",[27],93.6%
same,"viability, T/C",[28],62%
same,"viability, T/C",[29],15.1%
same,"viability, T/C",[30],85.5%
same,"viability, T/C",[31],82.7%
same,"viability, T/C",[32],86.1%
same,"viability, T/C",[33],78.1%
same,"viability, T/C",[34],43%
same,"viability, T/C",[35],9.91%
CC1COCCN1c1cc(-c2ccnn2C)c2ccnc(-c3ccn[nH]3)c2n1 (configuration not stated) + NC1CC1c1ccc(-c2cccc(O)c2)cc1,pIC50,[1],7.32
same,pIC50,[2],7.34
same,pIC50,[3],7.36
same,pIC50,[4],7.51
same,pIC50,[5],7.76
same,"viability, T/C",[36],119%
same,"viability, T/C",[37],108%
same,"viability, T/C",[38],63.8%
same,"viability, T/C",[39],25.9%
same,"viability, T/C",[40],16.2%
same,"viability, T/C",[41],17.9%
same,"viability, T/C",[42],115%
same,"viability, T/C",[43],107%
same,"viability, T/C",[44],62.5%
same,"viability, T/C",[45],22.7%
same,"viability, T/C",[46],15%
same,"viability, T/C",[47],17.3%
same,"viability, T/C",[48],111%
same,"viability, T/C",[49],111%
same,"viability, T/C",[50],61.5%
same,"viability, T/C",[51],22.6%
same,"viability, T/C",[52],15.8%
same,"viability, T/C",[53],17%
same,"viability, T/C",[54],112%
same,"viability, T/C",[55],98.5%
same,"viability, T/C",[56],48.2%
same,"viability, T/C",[57],23.1%
same,"viability, T/C",[58],15%
same,"viability, T/C",[59],18.4%
same,"viability, T/C",[60],103%
same,"viability, T/C",[61],70.2%
same,"viability, T/C",[62],28.4%
same,"viability, T/C",[63],17%
same,"viability, T/C",[64],12.9%
same,"viability, T/C",[65],19.6%
COc1cc(C2c3cc4c(cc3C(OC3OC5COC(C)OC5C(O)C3O)C3COC(=O)C23)OCO4)cc(OC)c1O (configuration not stated) + NC1CC1c1ccc(-c2cccc(O)c2)cc1,pIC50,[1],6.67
same,pIC50,[2],6.61
same,pIC50,[3],6.76
same,pIC50,[4],6.74
same,pIC50,[5],6.79
same,"viability, T/C",[6],96.6%
same,"viability, T/C",[7],88.2%
same,"viability, T/C",[8],63.9%
same,"viability, T/C",[9],42.5%
same,"viability, T/C",[10],26.9%
same,"viability, T/C",[11],12.1%
same,"viability, T/C",[12],105%
same,"viability, T/C",[13],95.8%
same,"viability, T/C",[14],66.2%
same,"viability, T/C",[15],47.1%
same,"viability, T/C",[16],25.8%
same,"viability, T/C",[17],9.93%
same,"viability, T/C",[18],93.1%
same,"viability, T/C",[19],89.4%
same,"viability, T/C",[20],57.9%
same,"viability, T/C",[21],40.2%
same,"viability, T/C",[22],22%
same,"viability, T/C",[23],10.9%
same,"viability, T/C",[24],90.7%
same,"viability, T/C",[25],82.9%
same,"viability, T/C",[26],59.2%
same,"viability, T/C",[27],43.3%
same,"viability, T/C",[28],20.8%
same,"viability, T/C",[29],10.3%
same,"viability, T/C",[30],80.6%
same,"viability, T/C",[31],76.6%
same,"viability, T/C",[32],54.3%
same,"viability, T/C",[33],42.5%
same,"viability, T/C",[34],22.6%
same,"viability, T/C",[35],8.94%
Nc1ncn(C2CC(O)C(CO)S2)c(=O)n1 (configuration not stated) + NC1CC1c1ccc(-c2cccc(O)c2)cc1,pIC50,[1],6.67
same,pIC50,[2],< 6.52
same,pIC50,[3],6.59
same,pIC50,[4],6.60
same,pIC50,[5],< 6.52
same,"viability, T/C","second compound 0.1 µM, first compound 0.000949 µM",117%
same,"viability, T/C","second compound 0.1 µM, first compound 0.003 µM",114%
same,"viability, T/C",[6],113%
same,"viability, T/C",[7],99%
same,"viability, T/C",[8],81.5%
same,"viability, T/C",[9],37.6%
same,"viability, T/C","second compound 0.316 µM, first compound 0.000949 µM",116%
same,"viability, T/C","second compound 0.316 µM, first compound 0.003 µM",121%
same,"viability, T/C",[12],112%
same,"viability, T/C",[13],106%
same,"viability, T/C",[14],86.8%
same,"viability, T/C",[15],51%
same,"viability, T/C","second compound 1 µM, first compound 0.000949 µM",121%
same,"viability, T/C","second compound 1 µM, first compound 0.003 µM",110%
same,"viability, T/C",[18],110%
same,"viability, T/C",[19],100%
same,"viability, T/C",[20],83.2%
same,"viability, T/C",[21],44%
same,"viability, T/C","second compound 3.16 µM, first compound 0.000949 µM",111%
same,"viability, T/C","second compound 3.16 µM, first compound 0.003 µM",109%
same,"viability, T/C",[24],102%
same,"viability, T/C",[25],102%
same,"viability, T/C",[26],79.3%
same,"viability, T/C",[27],44.2%
same,"viability, T/C","second compound 10 µM, first compound 0.000949 µM",93.3%
same,"viability, T/C","second compound 10 µM, first compound 0.003 µM",100%
same,"viability, T/C",[30],95.1%
same,"viability, T/C",[31],95.2%
same,"viability, T/C",[32],81.3%
same,"viability, T/C",[33],53.9%
Nc1ncn(C2CC(O)C(CO)O2)c(=O)n1 (configuration not stated) + NC1CCC(NC2CC2c2ccccc2)CC1,pIC50,[1],< 6.00
same,pIC50,[2],< 6.00
same,pIC50,[3],< 6.00
same,pIC50,[4],< 6.00
same,pIC50,[5],6.20
same,"viability, T/C",[36],115%
same,"viability, T/C",[37],117%
same,"viability, T/C",[38],97.1%
same,"viability, T/C",[39],82.6%
same,"viability, T/C",[40],72.8%
same,"viability, T/C",[41],56%
same,"viability, T/C",[42],127%
same,"viability, T/C",[43],108%
same,"viability, T/C",[44],95.3%
same,"viability, T/C",[45],92.2%
same,"viability, T/C",[46],71.4%
same,"viability, T/C",[47],63.1%
same,"viability, T/C",[48],118%
same,"viability, T/C",[49],99%
same,"viability, T/C",[50],96.7%
same,"viability, T/C",[51],82.5%
same,"viability, T/C",[52],70.1%
same,"viability, T/C",[53],59%
same,"viability, T/C",[54],103%
same,"viability, T/C",[55],117%
same,"viability, T/C",[56],82.8%
same,"viability, T/C",[57],82%
same,"viability, T/C",[58],65.2%
same,"viability, T/C",[59],52.6%
same,"viability, T/C",[60],79.2%
same,"viability, T/C",[61],80.2%
same,"viability, T/C",[62],82.6%
same,"viability, T/C",[63],69.6%
same,"viability, T/C",[64],58.5%
same,"viability, T/C",[65],44.6%
O=C(C=Cc1cccc(S(=O)(=O)Nc2ccccc2)c1)NO,"viability, T/C",compound 0.00949 µM,96.4% and 90.1%
same,"viability, T/C",compound 0.03 µM,94.9% and 96.3%
same,"viability, T/C",compound 0.0949 µM,98.5% and 102%
same,"viability, T/C",compound 0.3 µM,93.5% and 98.6%
same,"viability, T/C",compound 0.949 µM,48.6% and 73.1%
same,"viability, T/C",compound 3 µM,6.1% and 9.6%
same,pIC50,curve of compound,6.04 and 5.84
